According to ChEMBL document CHEMBL1143697, “Lemnalosides A-D, decalin-type bicyclic diterpene glycosides from the marine soft coral Lemnalia sp” (2007):
Activity calls are given as the source filed them. The calls are words filed in the database; no cut-off is given here.

Assays:
[1] = tested on: Streptomyces; experiment: Growth inhibition of Streptomyces 85E at 10 ug/disk by hyphae formation inhibition assay; type: functional, organism-based
[2] = tested on: Streptomyces; experiment: microbe, parasite or virus in culture; type: functional; conditions: 85E, read-out: IZ
Description: Growth inhibition of Streptomyces 85E at 20 ug/disk by hyphae formation inhibition assay

[3] = tested on: Streptomyces; experiment: microbe, parasite or virus in culture; conditions: 85E, read-out: IZ
Description: Growth inhibition of Streptomyces 85E assessed as induction of bald phenotype effect at 5 ug/disk by hyphae formation inhibition assay

[4] = tested on: Streptomyces; experiment: Growth inhibition of Streptomyces 85E by hyphae formation inhibition assay; type: functional, organism-based
[5] = tested on: Streptomyces; experiment: Growth inhibition of Streptomyces 85E at 2.5 ug/disk by hyphae formation inhibition assay; type: functional, organism-based

Row | SMILES | Activity [1] | zone of inhibition at 20 µg/disc [2] | further results
1 | CC(=O)OC[C@H]1O[C@@H](O[C@@]2(C)CC[C@@H]([C@H](C)CCC=C(C)C)[C@@H]3C=C(C)CC[C@@H]32)[C@H](O)[C@@H](O)[C@H]1O [LEMNALOSIDE A] | inactive | 11 mm | –
2 | CC1=C[C@H]2[C@H]([C@H](C)CCC[C@@H](C)C3OC[C@H]4O[C@@H](O3)[C@H](O)[C@@H](O)[C@@H]4O)CC=C(C)[C@H]2CC1 (stereo not given in full) [LEMNABOURSIDE] | inactive | 10 mm | –
3 | N#CC(=C(/N)Sc1ccccc1N)/C(C#N)=C(\N)Sc1ccccc1N | – | 15 mm | zone of inhibition at 5 µg/disc [3]: 15 mm
4 | C=C(C)C(CC[C@@H](C)[C@@H]1CC[C@](C)(O[C@@H]2O[C@H](COC(C)=O)[C@H](O)[C@H](O)[C@H]2O)[C@H]2CCC(C)=C[C@@H]12)OO (stereo not given in full) | – | – | Activity [4]: inactive
5 | CC(=O)O[C@H]1[C@@H](O)[C@@H](CO)O[C@@H](O[C@@]2(C)CC[C@@H]([C@H](C)CCC=C(C)C)[C@@H]3C=C(C)CC[C@@H]32)[C@@H]1O [LEMNALOSIDE B] | – | 18 mm | Activity [5]: Active
6 | CO[C@@]12[C@H](COC(N)=O)C3=C(C(=O)C(C)=C(N)C3=O)N1C[C@@H]1N[C@@H]12 [MITOMYCIN] | – | 30 mm | –
